Blank lines part the entries; values can stand above or below the molecule they belong to.
Key:
mTORC1 signaling = experiment: Cell-based mTORC1 activation (Method 2): western blot of phosphorylated S6 Kinase/4EBP1 in leucine-starved HEK293T cells; settings: concentration 100 μM, shift relative to DMSO control
Description: Briefly, 800,000 HEK293T cells were plated in each well of a 6-well plate in DMEM supplemented with 10% fetal bovine serum and antibiotics. […] Cells were then lysed, processed for SDS-PAGE and western blotting was performed with antibodies directed against the mTORC1 substrates phosphorylated S6 Kinase (Thr389) and phosphorylated 4EBP1 (Thr37/46) (Cell Signaling Technology) and loading controls (beta-actin, Santa Cruz Biotechnology) as described in Kang, S. A., et al. Science 341(6144): 364-374 (2013). The intensity of the bands corresponding to the phosphorylated substrates were then normalized to the actin band using the LI-COR® imaging platform.

[1] = target: T1, GATOR2/Sestrin2 complexes (Homo sapiens, UniProt P58004); experiment: In vitro PPI assay (Method 1; Western blot assay): Sestrin2 bound to GATOR2 after compound addition to immunoprecipitated FLAG-WDR24 complex; assay type: binding; settings: 25 μM, % activity relative to leucine (25 μM = 100%)
T1 construct: endogenous in cells; host or cells: HEK293T cells stably expressing FLAG-WDR24 (lentiviral, pLJM60)
T1 sequence (P58004 1-480): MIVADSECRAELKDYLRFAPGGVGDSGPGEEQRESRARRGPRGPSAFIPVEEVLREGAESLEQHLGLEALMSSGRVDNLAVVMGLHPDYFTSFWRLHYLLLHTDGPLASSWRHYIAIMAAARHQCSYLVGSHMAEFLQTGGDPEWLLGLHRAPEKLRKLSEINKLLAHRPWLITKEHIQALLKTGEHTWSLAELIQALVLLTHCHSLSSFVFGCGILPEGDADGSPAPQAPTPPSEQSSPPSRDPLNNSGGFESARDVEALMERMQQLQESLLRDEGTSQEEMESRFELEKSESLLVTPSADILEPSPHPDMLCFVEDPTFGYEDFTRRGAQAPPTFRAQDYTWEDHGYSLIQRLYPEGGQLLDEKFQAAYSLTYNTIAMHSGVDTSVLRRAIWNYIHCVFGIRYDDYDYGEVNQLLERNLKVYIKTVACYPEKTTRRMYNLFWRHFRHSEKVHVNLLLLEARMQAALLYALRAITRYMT
Source text: This screening assay measured test compound activity in vitro on GATOR2/Sestrin2 complexes purified via immunoprecipitation of stably expressed FLAG-WDR24 from HEK293T cells. HEK293T cells (293 Ts) were engineered to stably express N-terminally tagged FLAG-WDR24 via transduction by lentivirus. Lentiviruses were produced by co-transfection of the lentiviral transfer vector pLJM60 with the […] into HEK-293T cells using the XTremeGene 9 transfection reagent (Roche Diagnostics). The media was changed 24 hours post-transfection to Dulbecco's Modified Eagle's media (DMEM) supplemented with 30% Inactivated Fetal Serum. The virus-containing supernatants were collected 48 and 72 hours after transfection and passed through a 0.45 μm filter to eliminate cells. Target cells in 6-well tissue culture plates were infected in media containing 8 μg/mL polybrene and spin infections were performed by centrifugation at 2,200 rpm for 1 hour. Twenty-four hours after infection, the virus was removed and the cells selected with the appropriate antibiotic. Cells were then grown in DMEM supplemented with 10% fetal bovine serum and antibiotics.
Seventy-two hours later, cells were placed in standard RPMI media formulated with no amino acids and supplemented with 5 mM Glucose (−AA RPMI, US Biological Life Sciences) for 1 hour then subsequently lysed in lysis buffer (40 mM HEPES, 1% Triton, 10 mM sodium β-glycerophosphate, 10 mM sodium pyrophosphate, 2.5 mM MgCl2 and protease inhibitors). To isolate the FLAG-WDR24/endogenous-Sestrin2 complex, crude lysate (equivalent to 2-4 mg of total protein) in a volume of 1 ml was subjected to immunoprecipitation with 30 μl of anti-flag resin (SIGMA) for 2 hours at 4° C., washed twice in cold lysis buffer plus 0.5M NaCl and resuspended in 1 ml of cold cytosolic buffer (40 mM HEPES pH 7.4, 140 mM KCl, 10 mM NaCl, 2.5 mM MgCl2, 0.1% TritonX-100). […] After the incubation period, samples were centrifuged to pellet the FLAG-WDR24/endogenous-Sestrin2 complex bound to the anti-flag resin, the supernatant was completely removed and resin was resuspended in SDS-PAGE sample buffer and boiled for 5 minutes. Samples were then processed by SDS-PAGE and western blots were performed with anti-FLAG (SIGMA) and anti-Sestrin2 (Cell Signaling Technology) antibodies as described in L. Chantranupong, et al., Cell Reports 9:1-8 (2014).
The resulting western blots were scanned and band intensities corresponding to Sestrin2 and FLAG-WDR24 were quantified using the LI-COR® imaging platform. To determine the amount of Sestrin2 bound to GATOR2 for each condition, the band intensity for Sestrin2 was normalized to the band intensity of FLAG-WDR24. […]
72 hours later, cells were placed in standard RPMI media formulated with no amino acids and supplemented with 5 mM Glucose (−AA RPMI, USBiological Life Sciences) for 1 hour then subsequently lysed in lysis buffer (40 mM HEPES, 1% Triton, 10 mM Sodium Beta-Glycerophosphate, 10 mM Sodium Pyrophosphate, 2.5 mM MgCl2 and protease inhibitors). The Flag-WDR24/endogenous-Sestrin2 complex was isolated as follows: crude lysate (equivalent to 2-4 mg of total protein) in a volume of 1 ml was subjected to immunoprecipitation (IP) with 30 μl of anti-flag resin (SIGMA) for 2 hours at 4° C., washed twice in cold lysis buffer plus 0.5M NaCl and resuspended in 1 ml of cold cytosolic buffer (40 mM HEPES pH 7.4, 140 mM KCl, 10 mM NaCl, 2.5 mM MgCl2, 0.1% TritonX-100). Compounds were then added to each sample at a given concentration of 25 μM and incubated with rotation at 4° C. for 30 minutes. After the incubation period, samples were centrifuged to pellet the Flag-WDR24/endogenous-Sestrin2 complex bound to the anti-flag resin, the supernatant was completely removed and resin was resuspended in sodium dodecyl sulfate-polyacrylamide gel electrophoresis (SDS-PAGE) sample buffer and boiled for 5 minutes. […]

[2] = system: point mutant form of Sestrin2 unable to bind leucine; experiment: ILBA with Flag-tagged point mutant Sestrin2; assay type: binding, human
Description: In one version, the assay was performed with crude lysate generated from a human cell line after a 1-hour period of amino acid starvation (cells are lysed in 1% Triton, 10 mM beta-glycerol phosphate, 10 mM sodium pyrophosphate, 40 mM HEPES [pH 7.4], 150 mM NaCl and 2.5 mM MgCl2). […] After compound incubation, samples were subjected to immunoprecipitation with the CST anti-Sestrin2 antibody for 1.5 hours followed by a 30-minute incubation with protein-A sepharose as described in L. Chantranupong, et al., Cell Reports 9:1-8 (2014). The sepharose conjugated antibody-protein complex was precipitated via centrifugation and the flow-through was subjected to a second round of immunoprecipitation with a rabbit polyclonal anti-Sestrin2 antibody (Protein Tech, #10795-1-AP) to determine that total Sestrin2 protein levels between samples were equal. SDS-PAGE was performed with the immunoprecipitation samples followed by western-blot with the mouse monoclonal anti-Sestrin2 antibody from SIGMA (cat #WH0083667M3).
This assay was also performed in cultured human cells over-expressing Sestrin2 N-terminally fused to a Flag tag. In this version of the assay, the procedure remained the same, but immunoblotting was performed with a mouse anti-Flag antibody (#F3165, SIGMA).

mTORC1 = experiment: Western blot of pS6 in rat brain and selected peripheral organs; assay type: in vivo; settings: Example D; Leu 500 mg/kg oral; 1 hr post-dose
Description: Study Design: Thirty (30) male rats weighing between 175 and 200 g were randomized into 3 study groups (n=10), following a 5-day acclimation period. One hour following dosing rats were sacrificed by conscious decapitation, plasma, brain and selected peripheral tissues were harvested for compound level and WB analysis. Tissues were prepared for WB to quantitate the mTORC1 substrate pS6 as a measure of mTORC1 activity.
The dosing volume based on the weight of the animal (10 mL/kg) was administered by oral gavage. Test articles were prepared the day of dosing.
Tissues Preparations: One hour following dosing rats were sacrificed by conscious decapitation, plasma, brain and peripheral tissues were harvested and immediately frozen in liquid nitrogen. Tissues were thawed and homogenized for 1 min twice using MP homogenizer in Lysis Buffer (Cell lysis buffer: 1% Triton X-100, 50 mM HEPES pH 7.4, 100 mM NaCl, 2 mM EDTA, 10 mM Beta-glycerophosphate, 10 mM Sodium pyrophosphate, and 1 protease inhibitor tab per 50 mL fresh) at 4° C. Lysates were then sonicated on ice for 20 s at 50% amplitude. The protein concentration was determined by Bradford assay and all samples were mixed with loading buffer (50 mM Tris-HCl pH 6.8, 2% SDS, 5% glycerol, 5% β-mercaptoethanol and 0.01% Bromophenol blue) and stored at −20° C. until WB analysis.
Western Blot (WB) Analysis. Equal amounts of each sample (15 μg of total protein) were loaded and separated on NuPAGE 4-12% Bis-Tris gels and transferred to PVDF membrane (Immobilon-FL PVDF membrane, Millipore) using CAPS Buffer (10 mM 3-(Cyclohexylamino)-1-propanesulfonic acid, 12.5% Ethanol pH=10). After transfer, membranes were incubated for 1 hr at room temperature in Odyssey blocking buffer (Licor). After blocking, membranes were incubated at 4° C. overnight with primary antibodies. Primary antibodies used were rabbit anti-[…] (cell signaling; #5364) at 1:1000, mouse anti-GAPDH (Sigma; #G8795) at 1:1000 and mouse anti-a-tubulin (Sigma; #T5168) at 1:10000 in Odyssey blocking buffer. The next day, membranes were washed three times in 1×TBS-Tween (25 mM Tris, pH 7.4, 3.0 mM KCl, 140 mM NaCl and 0.05% Tween-20) and incubated with dye-coupled secondary antibodies (goat anti-mouse IRdye680, and goat anti-rabbit IRdye800 from LI-COR) at 1:20000 in Odyssey blocking buffer for 30 min then wash three times in IX TBS-Tween. Signals were quantified using the Odyssey Infrared Imaging System (LI-COR Bioscience). The resulting densitometric readings were used to generate a ratio of phopho-protein to a-tubulin or GAPDH. The resulting ratio was further normalized to vehicle treated control group.

Structure (SMILES): COC(=O)[C@@H](N)CC(C)C [Compound I-168]
Cell-Based mTORC1 Activation (mTORC1 signaling): D to E

Structure (SMILES): CC(C)C[C@H](N)C(N)=O.Cl [Compound I-23]
Cell-Based mTORC1 Activation (mTORC1 signaling): D to F
Activity of Leucine: % Activity [1]: C (a % activity relative to leucine of between -40 and 40%)

Structure (SMILES): NC(CCCC(F)(F)F)C(=O)O (centres unmarked) [Compound I-42]
Cell-Based mTORC1 Activation (mTORC1 signaling): D to F
Activity of Leucine: % Activity [1]: A (a % activity relative to leucine of ≥40%)

decrease in affinity of the CST antibody upon ligand binding [2]: not observed
Structure (SMILES): CC(C)(C)C[C@H](N)C(=O)O [γ-methylleucine]

Structure (SMILES): CC(C)(C)C[C@H](N)C(=O)O [Compound I-43]
Cell-Based mTORC1 Activation (mTORC1 signaling): D to E
Activity of Leucine: % Activity [1]: A (a % activity relative to leucine of ≥40%)

Structure (SMILES): C[C@H](CC(N)C(=O)O)C(F)(F)F (stereo in doubt) [Compound I-167, (2R,4R)-2-amino-5,5,5-trifluoro-4-methylpentanoic Acid]
Cell-Based mTORC1 Activation (mTORC1 signaling): D to F
Activity of Leucine: % Activity [1]: A (a % activity relative to leucine of ≥40%)

Structure (SMILES): CC(C)C[C@H](N)C(=O)O [Leu, Leucine, reference compound]
pS6 levels in rat brain (mTORC1): no activation was observed

Structure (SMILES): N[C@@H](CC1CCC1)C(=O)O [Compound I-37]
Cell-Based mTORC1 Activation (mTORC1 signaling): E to F
Activity of Leucine: % Activity [1]: A (a % activity relative to leucine of ≥40%)

Structure (SMILES): CC(C)C[C@@H](N)B1OC(C)(C)C(C)(C)O1 [Compound I-10]
Activity of Leucine: % Activity [1]: C (a % activity relative to leucine of between -40 and 40%)

Structure (SMILES): CC(C)C[C@H](NC(=O)Cc1ccccc1)C(=O)O [Compound I-12, (S)-4-methyl-2-(2-phenylacetamido)pentanoic Acid]
Activity of Leucine: % Activity [1]: C (a % activity relative to leucine of between -40 and 40%)

Structure (SMILES): CC[C@@H](C)[C@H](N)C(=O)O [Compound I-29]
Activity of Leucine: % Activity [1]: A (a % activity relative to leucine of ≥40%)

Structure (SMILES): CC(C)C[C@H](NC(=O)c1ccccc1)C(=O)O [Compound I-15, (S)-2-benzamido-4-methylpentanoic Acid]
Activity of Leucine: % Activity [1]: C (a % activity relative to leucine of between -40 and 40%)

Structure (SMILES): CC(C)C[C@@H](N)S(=O)(=O)O [Compound I-156]
Activity of Leucine: % Activity [1]: C (a % activity relative to leucine of between -40 and 40%)

Structure (SMILES): CN[C@@H](CC(C)(C)C)C(=O)O [Compound I-50]
Activity of Leucine: % Activity [1]: C (a % activity relative to leucine of between -40 and 40%)

Structure (SMILES): CN(C)[C@@H](CC(C)(C)C)C(N)=O [Compound I-158]
Activity of Leucine: % Activity [1]: C (a % activity relative to leucine of between -40 and 40%)

— patent US20210228523A1, “MODULATORS OF SESTRIN-GATOR2 INTERACTION AND USES THEREOF” (Navitor Pharmaceuticals, Inc., priority 2017, published 2021)
